Source: PubChem BioAssay (NCI)
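All cell lines were grown in 96-well plates and treated with compound for 48 hours. TGI is the concentration that stops growth completely.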

Columns and labels:
Experiment in all cases: NCI tumour cell line growth inhibition, 48 h
786-0 renal = system: 786-0 renal
A498 renal = system: A498 renal
A549 NSCLC = system: A549 NSCLC
ACHN renal = system: ACHN renal
CAKI-1 renal = system: CAKI-1 renal
CCRF-CEM leukemia = system: CCRF-CEM leukemia
COLO 205 colon = system: COLO 205 colon
DLD-1 colon = system: DLD-1 colon
DMS 114 small cell lung = system: DMS 114 small cell lung
DMS 273 small cell lung = system: DMS 273 small cell lung
EKVX NSCLC = system: EKVX NSCLC
HCC-2998 colon = system: HCC-2998 colon
HCT-116 colon = system: HCT-116 colon
HCT-15 colon = system: HCT-15 colon
HL-60(TB) leukemia = system: HL-60(TB) leukemia
HOP-18 NSCLC = system: HOP-18 NSCLC
HOP-62 NSCLC = system: HOP-62 NSCLC
HOP-92 NSCLC = system: HOP-92 NSCLC
HT29 colon = system: HT29 colon
IGROV1 ovarian = system: IGROV1 ovarian
K-562 leukemia = system: K-562 leukemia
KM12 colon = system: KM12 colon
LOX IMVI melanoma = system: LOX IMVI melanoma
LXFL 529 NSCLC = system: LXFL 529 NSCLC
M14 melanoma = system: M14 melanoma
M19-MEL melanoma = system: M19-MEL melanoma
MALME-3M melanoma = system: MALME-3M melanoma
MOLT-4 leukemia = system: MOLT-4 leukemia
NCI-H226 lung = system: NCI-H226 lung
NCI-H23 lung = system: NCI-H23 lung
NCI-H460 lung = system: NCI-H460 lung
NCI-H522 lung = system: NCI-H522 lung
OVCAR-3 ovarian = system: OVCAR-3 ovarian
OVCAR-4 ovarian = system: OVCAR-4 ovarian
OVCAR-5 ovarian = system: OVCAR-5 ovarian
OVCAR-8 ovarian = system: OVCAR-8 ovarian
RPMI-8226 leukemia = system: RPMI-8226 leukemia
RXF 393 renal = system: RXF 393 renal
RXF-631 renal = system: RXF-631 renal
SF-268 CNS = system: SF-268 CNS
SF-295 CNS = system: SF-295 CNS
SF-539 CNS = system: SF-539 CNS
SK-MEL-2 melanoma = system: SK-MEL-2 melanoma
SK-MEL-28 melanoma = system: SK-MEL-28 melanoma
SK-MEL-5 melanoma = system: SK-MEL-5 melanoma
SK-OV-3 ovarian = system: SK-OV-3 ovarian
SN12C renal = system: SN12C renal
SNB-19 CNS = system: SNB-19 CNS
SNB-75 CNS = system: SNB-75 CNS
SNB-78 CNS = system: SNB-78 CNS
SR leukemia = system: SR leukemia
SW-620 colon = system: SW-620 colon
TK-10 renal = system: TK-10 renal
U251 CNS = system: U251 CNS
UACC-257 melanoma = system: UACC-257 melanoma
UACC-62 melanoma = system: UACC-62 melanoma
UO-31 renal = system: UO-31 renal
XF 498 CNS = system: XF 498 CNS

Question: For Cc1cc2c(C(C)C)c(O)c(O)c(C=NCCO)c2c(O)c1-c1c(C)cc2c(C(C)C)c(O)c(O)c(C=NCCO)c2c1O, which TGI (786-0 renal) is on record?
Answer: 4.83 µM

Question: What about the TGI (A498 renal) of the same compound?
Answer: 9.76 µM

Question: And the TGI (A549 NSCLC)?
Answer: 2980 nM

Question: What about the TGI (ACHN renal) of the same compound?
Answer: 12.4 µM

Question: And the TGI (CAKI-1 renal)?
Answer: 19.5 µM

Question: And the TGI (CCRF-CEM leukemia)?
Answer: 5.78 µM

Question: And the TGI (COLO 205 colon)?
Answer: 3.03 µM

Question: And the TGI (DLD-1 colon)?
Answer: 11.7 µM

Question: And the TGI (DMS 114 small cell lung)?
Answer: 2700 nM

Question: And the TGI (DMS 273 small cell lung)?
Answer: 3.16 µM

Question: What about the TGI (EKVX NSCLC) of the same compound?
Answer: 7.3 µM

Question: What about the TGI (HCC-2998 colon) of the same compound?
Answer: 8.25 µM

Question: What about the TGI (HCT-116 colon) of the same compound?
Answer: 3.03 µM

Question: And the TGI (HCT-15 colon)?
Answer: 2900 nM

Question: And the TGI (HL-60(TB) leukemia)?
Answer: 4.97 µM

Question: And the TGI (HOP-18 NSCLC)?
Answer: 5.37 µM

Question: And the TGI (HOP-62 NSCLC)?
Answer: 5.96 µM

Question: And the TGI (HOP-92 NSCLC)?
Answer: 5.07 µM

Question: What about the TGI (HT29 colon) of the same compound?
Answer: 4.99 µM

Question: And the TGI (IGROV1 ovarian)?
Answer: 6.38 µM

Question: And the TGI (K-562 leukemia)?
Answer: 3.31 µM

Question: And the TGI (KM12 colon)?
Answer: 2400 nM

Question: And the TGI (LOX IMVI melanoma)?
Answer: 3.11 µM

Question: And the TGI (LXFL 529 NSCLC)?
Answer: 3.05 µM

Question: And the TGI (M14 melanoma)?
Answer: 3.58 µM

Question: What about the TGI (M19-MEL melanoma) of the same compound?
Answer: 3.62 µM

Question: And the TGI (MALME-3M melanoma)?
Answer: 9.36 µM

Question: What about the TGI (MOLT-4 leukemia) of the same compound?
Answer: 2460 nM

Question: What about the TGI (NCI-H226 lung) of the same compound?
Answer: 6.88 µM

Question: What about the TGI (NCI-H23 lung) of the same compound?
Answer: 4.16 µM

Question: What about the TGI (NCI-H460 lung) of the same compound?
Answer: 2410 nM

Question: What about the TGI (NCI-H522 lung) of the same compound?
Answer: 4.78 µM

Question: And the TGI (OVCAR-3 ovarian)?
Answer: 5.79 µM

Question: What about the TGI (OVCAR-4 ovarian) of the same compound?
Answer: 16.3 µM

Question: And the TGI (OVCAR-5 ovarian)?
Answer: 9.63 µM

Question: What about the TGI (OVCAR-8 ovarian) of the same compound?
Answer: 21.9 µM

Question: What about the TGI (RPMI-8226 leukemia) of the same compound?
Answer: 4.9 µM

Question: And the TGI (RXF 393 renal)?
Answer: 9.51 µM

Question: And the TGI (RXF-631 renal)?
Answer: 5.35 µM

Question: And the TGI (SF-268 CNS)?
Answer: 3.1 µM

Question: And the TGI (SF-295 CNS)?
Answer: 5.51 µM

Question: What about the TGI (SF-539 CNS) of the same compound?
Answer: 5.37 µM

Question: And the TGI (SK-MEL-2 melanoma)?
Answer: 14.6 µM

Question: And the TGI (SK-MEL-28 melanoma)?
Answer: 3.66 µM

Question: What about the TGI (SK-MEL-5 melanoma) of the same compound?
Answer: 3.23 µM

Question: And the TGI (SK-OV-3 ovarian)?
Answer: 12.3 µM

Question: What about the TGI (SN12C renal) of the same compound?
Answer: 9.63 µM

Question: What about the TGI (SNB-19 CNS) of the same compound?
Answer: 25.1 µM

Question: What about the TGI (SNB-75 CNS) of the same compound?
Answer: 9.13 µM

Question: And the TGI (SNB-78 CNS)?
Answer: 34.1 µM

Question: What about the TGI (SR leukemia) of the same compound?
Answer: 3.78 µM

Question: What about the TGI (SW-620 colon) of the same compound?
Answer: 16.7 µM

Question: And the TGI (TK-10 renal)?
Answer: 18.4 µM

Question: What about the TGI (U251 CNS) of the same compound?
Answer: 2590 nM

Question: What about the TGI (UACC-257 melanoma) of the same compound?
Answer: 4.98 µM

Question: And the TGI (UACC-62 melanoma)?
Answer: 6.15 µM

Question: What about the TGI (UO-31 renal) of the same compound?
Answer: 11 µM

Question: And the TGI (XF 498 CNS)?
Answer: 8.43 µM
